Test results published in patent US5958923A, “Use of thiazole and thiadiazole compounds” (BASF Aktiengesellschaft, priority 1994, dated 1999).

How the values were obtained:
D2 receptor = target: T1, D2 receptor (Bos taurus, UniProt P20288); test: D2 binding assay (3H-spiperone, D2low, bovine nucleus caudatus membranes); conditions: 0.2 nmol/l 3H-spiperone (D2low), 25° C., 60 min
T1 construct: Nucleus caudatus was removed from bovine brain; from tissue; host or cells: bovine nucleus caudatus membranes
Experimental: a) Nucleus caudatus (bovine)
Nucleus caudatus was removed from bovine brain and washed with ice-cold 0.32 M sucrose solution. After determination of the weight, the material was comminuted and homogenized in 5-10 volumes of sucrose solution using a Potter-Evehjem [sic] homogenizer (500 rpm). The homogenate was centrifuged at 3,000×g for 15 minutes (4° C.), and the resulting supernatant was subjected to another 15-minute centrifugation at 40,000×g. The residue was then washed twice, by resuspension and centrifugation, with 50 mM tris-HCl, pH 7.4. The membranes were stored in liquid nitrogen until used.
a) ^3 H-Spiperone (D2low)
Nucleus caudatus membranes were taken up in incubation buffer (mM: tris-HCl 50, NaCl 120, KCl 5, MgCl2 1, CaCl2 2, pH 7.4). Various mixtures, each of 1 ml, were prepared:
Total binding: 400 μg of membranes+0.2 nmol/l ^3 H-spiperone (Du Pont de Nemours, NET-565).
Non-specific binding: as mixtures for total binding+10 μM (+)-butaclamol.
Test substance: as mixtures for total binding+increasing concentrations of test substance.
After incubation at 25° C. for 60 minutes, the mixtures were filtered through GF/B glass fibre filters (Whatman, England) on a Skatron cell collector (from Zinsser, Frankfurt), and the filters were washed with ice-cold 50 mM tris-HCl buffer, pH 7.4. The radioactivity collected on the filters was quantified using a Packard 2200 CA liquid scintillation counter.
The Ki values were determined by non-linear regression analysis using the LIGAND program or by conversion of the IC50 values using the formula of Cheng and Prusoff.

human D3 receptor = target: T2, human D3 receptor (Homo sapiens, UniProt P35462); test: D3 binding assay (125I-iodosulpiride, cloned human D3 receptor-expressing CCL 1.3 mouse fibroblasts); conditions: for Ki: 0.1 nM 125 iodosulpiride, 60 min, 30° C., read-out: Receptor binding D3 125I-sulpiride Ki; for Selectivity Ki D2 /Ki D3: ratio D2 (3H-spiperone) to D3 (125I-sulpiride)
T2 construct: (Natick, Mass., USA); host or cells: CCL 1.3 mouse fibroblasts
Experimental: Cloned human D3 receptor-expressing CCL 1.3 mouse fibroblasts obtained from Res. Biochemicals Internat. One Strathmore Rd., Natick, Mass. 01760-2418 USA, were used for the binding studies.
The D3 -expressing cells were grown in RPMI-1640 containing 10% fetal calf serum (GIBCO No. 041-32400 N); 100 U/ml penicillin and 0.2% streptomycin (GIBCO BRL, Gaithersburg, Md., USA). After 48 h, the cells were washed with PBS and incubated with 0.05% trypsin-containing PBS for 5 min. Neutralization with medium was then carried out, and the cells were collected by centrifugation at 300×g. To lyze the cells, the pellet was briefly washed with lysis buffer (5 mM tris-HCl, pH 7.4, with 10% glycerol) and then incubated in a concentration of 10^7 cells/ml of lysis buffer at 4° C. for 30 min. The cells were centrifuged at 200×g for 10 min and the pellet was stored in liquid nitrogen.
For the D3 receptor-binding assay, the membranes were suspended in incubation buffer (50 mM tris-HCl, pH 7.4, with 120 mM NaCl, 5 mM KCl, 2 mM CaCl2, 2mM MgCl2, 10 μM quinolinol, 0.1% ascorbic acid and 0.1% BSA) in a concentration of about 10^6 cells/250 μl of assay mixture and incubated at 30° C. with 0.1 nM ^125 iodosulpiride in the presence and absence of test substance. The non-specific binding was determined using 10^-6 M spiperone.
After 60 min, the free and the bound radioligand was separated by filtration through GF/B glass fiber filters (Whatman, England) on a Skatron cell collector (Skatron, Lier, Norway), and the filters were washed with ice-cold tris-HCl buffer, pH 7.4. The radioactivity collected on the filters was quantified using a Packard 2200 CA liquid scintillation counter.
The Ki values were determined by non-linear regression analysis using the LIGAND program.

T2 sequence (P35462 whole entry): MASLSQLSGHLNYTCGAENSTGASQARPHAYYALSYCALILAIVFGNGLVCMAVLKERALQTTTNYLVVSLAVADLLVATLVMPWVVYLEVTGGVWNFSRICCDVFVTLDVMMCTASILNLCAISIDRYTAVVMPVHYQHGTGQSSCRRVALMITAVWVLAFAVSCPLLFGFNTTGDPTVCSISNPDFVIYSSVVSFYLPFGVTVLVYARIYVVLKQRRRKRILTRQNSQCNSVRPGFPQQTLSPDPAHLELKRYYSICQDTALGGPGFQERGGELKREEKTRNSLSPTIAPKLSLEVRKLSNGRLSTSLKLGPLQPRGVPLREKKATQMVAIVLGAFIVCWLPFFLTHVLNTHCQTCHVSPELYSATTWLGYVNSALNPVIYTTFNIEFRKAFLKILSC
T1 sequence (P20288 whole entry): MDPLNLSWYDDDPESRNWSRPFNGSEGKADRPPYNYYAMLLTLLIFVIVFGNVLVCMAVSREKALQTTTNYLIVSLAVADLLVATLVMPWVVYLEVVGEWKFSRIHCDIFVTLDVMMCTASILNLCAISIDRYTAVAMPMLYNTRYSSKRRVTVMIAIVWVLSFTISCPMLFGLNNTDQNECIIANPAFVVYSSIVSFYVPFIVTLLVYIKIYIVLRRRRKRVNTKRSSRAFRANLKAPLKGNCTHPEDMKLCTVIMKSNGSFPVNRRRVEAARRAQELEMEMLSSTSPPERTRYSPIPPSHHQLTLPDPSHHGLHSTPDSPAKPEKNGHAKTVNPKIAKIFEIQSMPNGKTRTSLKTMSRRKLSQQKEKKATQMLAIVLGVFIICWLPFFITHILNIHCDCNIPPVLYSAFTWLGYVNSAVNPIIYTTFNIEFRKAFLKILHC

Compound | Ki (D2 receptor) [nM] | Ki (human D3 receptor) [nM] | Selectivity Ki D2 /Ki D3 (human D3 receptor)
Nc1nnc(CCCCCCN2CCN(c3cccc(C(F)(F)F)c3)CC2)s1 [Example 2] | 65 | 1.4 | 46
Nc1nnc(SCCCN2CCN(c3cc(Cl)cc(Cl)c3)CC2)s1 [Example 13] | 25 | 0.6 | 41
CC(CSc1nnc(N)s1)CN1CCN(c2cccc(C(F)(F)F)c2)CC1 (stereo not drawn) [Example 16] | 402 | 10.9 | 36
Nc1nnc(SCCCN2CCN(c3cccc(C(F)(F)F)n3)CC2)s1 [Example 23] | 200 | 6.3 | 31
N#Cc1cccc(N2CCN(CCCCCCCCSc3nnc(N)s3)CC2)c1 [Example 51] | 500 | 8.3 | 62

Continued by falling Ki (D2 receptor), values first:

Ki (D2 receptor) [nM] | Ki (human D3 receptor) [nM] | Selectivity Ki D2 /Ki D3 (human D3 receptor) | Compound
3500 | 27 | 70 | Cc1cc(N2CCN(CCCSc3nnc(N)s3)CC2)nc(-n2cccc2)n1 [Example 56]
560 | 6.5 | 86 | CC(C)c1cccc(N2CCN(CCCCCCCSc3nnc(N)s3)CC2)c1 [Example 49]
225 | 1.7 | 132 | CC(C)(C)c1cc(N2CCN(CCCSc3nnc(N)s3)CC2)nc(C(C)(C)C)n1 [Example 58]
145 | 2.95 | 50 | Nc1nnc(SCC=CCN2CCN(c3cccc(C(F)(F)F)n3)CC2)s1 [Example 53]
